In patent US20220025334A1, “SYNTHETIC FOOD COMPOSITIONS” (Wild Type, Inc., priority 2018, published 2022):
Entries after “also recorded” stand apart in the source; their conditions may differ.

Tested on: duck hepatocytes
Experiment: Induction of steatosis in cultured duck hepatocytes by fatty acid incubation
Format: cell-based

For `CCCCC/C=C\C/C=C\CCCCCCCC(=O)O` [linoleic acid], the “dose response: linoleic acid concentration versus percentage of hepatocytes having steatosis” value (0, 0.1, 0.25, 0.5, 1, 2 μM linoleic acid (FIG. 16B)) was “corresponding increase in the percentage of hepatocytes with steatosis”, the “induction of steatosis (accumulation of intracellular lipid-containing vesicles)” value (2 μM linoleic acid vs untreated control, duck hepatocytes (FIG. 16A)) was “successful induction of steatosis; also recorded: successfully induced to undergo steatosis” and the “percentage of steatotic hepatocytes” value (2 μM linoleic acid, duck hepatocytes (FIG. 16B)) was “above 85%”.
